Data on 20 compounds can be found in BindingDB's records for patent WO2025051920 (Sanofi-Aventis Deutschland, 2025).

By IC50 is commonly meant the concentration at which inhibition is half-maximal. Read a low IC50 as higher potency.

Bridge positions count the residues as written; N and C are the ends. Square brackets hold non-standard residues; d marks the D form. Peptide text beside a SMILES is read from it. ξ: configuration not given here. Trp(1-Me) = Cn1cc(C[C@H](N)C(=O)O)c2ccccc21; 2Nal = N[C@@H](Cc1ccc2ccccc2c1)C(=O)O; dOrn = NCCC[C@@H](N)C(=O)O; ξH = NC(Cc1c[nH]cn1)C(=O)O; Thp = NC1(C(=O)O)CCOCC1; ξD = NC(CC(=O)O)C(=O)O; ξOrn = NCCCC(N)C(=O)O; Aib = CC(C)(N)C(=O)O; ξK = NCCCCC(N)C(=O)O

For the experiment, the target named is Interleukin-23 subunit alpha/receptor (UniProt Q5VWK5). As to the kind of experiment: ELISA assay for specific human IL-23R inhibitors. As to the method:
A 384-well plate was coated with 50 µl/well of human IL-23 at a final concentration of […] and incubated overnight at 4°C. The wells were washed 3 times with […] wash buffer and blocked with […] blocking buffer for 60 minutes at room temperature and washed again. 20 µl of serially diluted test peptides was added to each well and subsequently 20 µl of recombinant human IL-23R-Fc chimera at final concentration of […]. The plate was incubated for 60 minutes at room temperature. After the wells were washed, bound IL-23R-Fc was detected with goat anti-hu- IgG 1 -HRP antibody. Signals were visualized with QuantaBlu Fluorogenic Peroxidase Substrate.
On the technique in general: An ELISA detects its analyte on a solid surface through an enzyme-linked reagent.

Chain of Interleukin-23 subunit alpha/receptor (Q9NPF7 whole entry): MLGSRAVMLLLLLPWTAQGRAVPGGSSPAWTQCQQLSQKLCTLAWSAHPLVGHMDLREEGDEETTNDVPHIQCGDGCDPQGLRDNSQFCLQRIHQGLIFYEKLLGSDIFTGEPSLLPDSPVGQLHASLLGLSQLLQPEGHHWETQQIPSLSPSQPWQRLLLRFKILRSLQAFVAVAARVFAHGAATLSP
Chain of Interleukin-23 subunit alpha/receptor (Q5VWK5 whole entry): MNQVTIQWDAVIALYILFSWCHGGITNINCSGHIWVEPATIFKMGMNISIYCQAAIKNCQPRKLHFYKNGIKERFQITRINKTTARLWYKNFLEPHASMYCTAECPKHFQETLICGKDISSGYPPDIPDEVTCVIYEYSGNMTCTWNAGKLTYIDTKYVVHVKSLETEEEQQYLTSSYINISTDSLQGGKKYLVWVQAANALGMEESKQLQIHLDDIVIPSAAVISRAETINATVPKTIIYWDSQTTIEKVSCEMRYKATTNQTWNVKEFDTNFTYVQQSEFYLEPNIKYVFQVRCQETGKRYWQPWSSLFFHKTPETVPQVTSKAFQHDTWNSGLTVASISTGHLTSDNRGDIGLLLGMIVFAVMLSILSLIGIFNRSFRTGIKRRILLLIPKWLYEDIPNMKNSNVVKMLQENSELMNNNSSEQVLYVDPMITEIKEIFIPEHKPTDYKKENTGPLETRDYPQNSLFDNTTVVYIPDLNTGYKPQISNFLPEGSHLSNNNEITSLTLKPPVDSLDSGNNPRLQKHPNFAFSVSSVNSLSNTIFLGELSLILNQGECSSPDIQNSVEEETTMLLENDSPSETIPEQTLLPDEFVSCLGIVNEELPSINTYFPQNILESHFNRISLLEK

Turning to `COc1ccc(C[C@@H]2NC(=O)[C@H](CCCNC(=N)N)NC(=O)[C@H](CCC(N)=O)NC(=O)[C@H](Cc3c[nH]c4ccccc34)NC(=O)C(Cc3c[nH]cn3)NC(=O)[C@H](CC(N)=O)NC(=O)C(NC(C)=O)CCCCNC(=O)CC(C(=O)N[C@@H](CC(N)=O)C(=O)N[C@@H](CC(N)=O)C(=O)O)NC(=O)C3(CCOCC3)NC(=O)[C@H](Cc3ccc4ccccc4c3)NC2=O)cc1` (stereo not given in full) [WO2025051920, Example 42] (Ac-[ξK]N[ξH]WQRY(Me)[2Nal][Thp][ξD]NN-OH; lactam 1-10), the IC50 came to 18.1 nM.

The compound `COc1ccc(C[C@@H]2NC(=O)[C@H](C(C)C)NC(=O)[C@H](CCC(N)=O)NC(=O)[C@H](Cc3c[nH]c4ccccc34)NC(=O)[C@H]([C@@H](C)O)NC(=O)[C@H](CC(N)=O)NC(=O)[C@H](NC(C)=O)CCCCNC(=O)C[C@@H](C(=O)N[C@@H](CC(N)=O)C(=O)N[C@@H](CC(N)=O)C(=O)O)NC(=O)C(C)(C)NC(=O)[C@H](Cc3cccc4ccccc34)NC2=O)cc1` [WO2025051920, Example 20] gave an IC50 of 15.9 nM. The IC50 values of the last two compounds are within 1.5-fold of each other.

In turn, `COc1ccc(C[C@@H]2NC(=O)[C@H](CCCNC(=N)N)NC(=O)[C@H](CCC(N)=O)NC(=O)[C@H](Cc3c[nH]c4ccccc34)NC(=O)[C@H]([C@@H](C)O)NC(=O)[C@H](CC(N)=O)NC(=O)[C@H](NC(C)=O)CCCCNC(=O)C[C@@H](C(=O)N[C@@H](CC(N)=O)C(=O)N[C@@H](CC(N)=O)C(=O)O)NC(=O)[C@H](CCCCNC(C)=O)NC(=O)[C@H](Cc3cccc4ccccc34)NC2=O)cc1` [WO2025051920, Example 17] returned an IC50 of 7.87 nM.

`COc1ccc(C[C@@H]2NC(=O)[C@H](C)NC(=O)[C@H](CCC(N)=O)NC(=O)[C@H](Cc3c[nH]c4ccccc34)NC(=O)[C@H]([C@@H](C)O)NC(=O)[C@H](CC(N)=O)NC(=O)[C@H](NC(C)=O)CCCCNC(=O)C[C@@H](C(=O)N[C@@H](CC(N)=O)C(=O)N[C@@H](CC(N)=O)C(=O)O)NC(=O)C(C)(C)NC(=O)[C@H](Cc3cccc4ccccc34)NC2=O)cc1` [WO2025051920, Example 8] registered a concentration for half-maximal inhibition (IC50) of 2.74 nM. This IC50 lies about 2.9-fold lower than the previous one.

With `COc1ccc(C[C@@H]2NC(=O)[C@H](CCCNC(=N)N)NC(=O)[C@H](CCC(N)=O)NC(=O)[C@H](Cc3c[nH]c4ccccc34)NC(=O)[C@H]([C@@H](C)O)NC(=O)[C@H](CC(N)=O)NC(=O)[C@H](NC(C)=O)CC(=O)NCCCC[C@@H](C(=O)N[C@@H](CC(N)=O)C(=O)N[C@@H](CC(N)=O)C(=O)O)NC(=O)C(C)(C)NC(=O)[C@H](Cc3cccc4ccccc34)NC2=O)cc1` [WO2025051920, Example 11], the IC50 amounted to 18.9 nM.

For the compound `COc1ccc(C[C@@H]2NC(=O)[C@H](CCCNC(=N)N)NC(=O)[C@H](CCC(N)=O)NC(=O)[C@H](Cc3c[nH]c4ccccc34)NC(=O)[C@H]([C@@H](C)O)NC(=O)[C@H](CC(N)=O)NC(=O)[C@H](NC(C)=O)CCCNC(=O)C[C@@H](C(=O)N[C@@H](CC(N)=O)C(=O)N[C@@H](CC(N)=O)C(N)=O)NC(=O)C(C)(C)NC(=O)[C@H](Cc3ccc4ccccc4c3)NC2=O)cc1` [WO2025051920, Example 27] (Ac-[dOrn]NTWQRY(Me)[2Nal][Aib]DNN-NH2; lactam 1-10), the IC50 turned out to be 19.7 nM.

Regarding `COc1ccc(C[C@@H]2NC(=O)[C@H](CCCNC(=N)N)NC(=O)[C@H](CCC(N)=O)NC(=O)[C@H](Cc3cn(C)c4ccccc34)NC(=O)[C@H]([C@@H](C)O)NC(=O)[C@H](CC(N)=O)NC(=O)[C@@H](NC(C)=O)CC(=O)NCCCC(C(=O)N[C@@H](CC(N)=O)C(=O)N[C@@H](CC(N)=O)C(=O)O)NC(=O)[C@H](CC(C)C)NC(=O)[C@H](Cc3ccc4ccccc4c3)NC2=O)cc1` (stereo not given in full) [WO2025051920, Example 37] (Ac-DNT[Trp(1-Me)]QRY(Me)[2Nal]L[ξOrn]NN-OH; lactam 1-10), the IC50 came out at 3.57 nM.

`COc1ccc(C[C@@H]2NC(=O)[C@H](CC(C)C)NC(=O)[C@H](CCC(N)=O)NC(=O)[C@H](Cc3c[nH]c4ccccc34)NC(=O)[C@H]([C@@H](C)O)NC(=O)[C@H](CC(N)=O)NC(=O)[C@H](NC(C)=O)CCCCNC(=O)C[C@@H](C(=O)N[C@@H](CC(N)=O)C(=O)N[C@@H](CC(N)=O)C(=O)O)NC(=O)C(C)(C)NC(=O)[C@H](Cc3cccc4ccccc34)NC2=O)cc1` [WO2025051920, Example 7]: the IC50 came out at 2.47 nM. This IC50 and that of the compound before are within 1.5-fold of each other.

The compound `COc1ccc(C[C@@H]2NC(=O)[C@H](C)NC(=O)[C@H](CCC(N)=O)NC(=O)[C@H](Cc3c[nH]c4ccccc34)NC(=O)[C@H]([C@@H](C)O)NC(=O)[C@H](CC(N)=O)NC(=O)[C@H](NC(C)=O)CCCCNC(=O)C[C@@H](C(=O)N[C@@H](C)C(=O)N[C@@H](C)C(=O)O)NC(=O)C(C)(C)NC(=O)[C@H](Cc3ccc4ccccc4c3)NC2=O)cc1` [WO2025051920, Example 50] registered a half-maximal inhibitory concentration (IC50) of 8.29 nM.

`COc1ccc(C[C@@H]2NC(=O)[C@H](CC(C)C)NC(=O)[C@H](CCC(N)=O)NC(=O)[C@H](Cc3c[nH]c4ccccc34)NC(=O)[C@H]([C@@H](C)O)NC(=O)[C@H](CC(N)=O)NC(=O)[C@H](NC(C)=O)CCCCNC(=O)C[C@@H](C(=O)N[C@@H](CC(N)=O)C(=O)N[C@@H](CC(N)=O)C(=O)O)NC(=O)C(C)(C)NC(=O)[C@H](Cc3ccc4ccccc4c3)NC2=O)cc1` [WO2025051920, Example 1] returned an IC50 of 0.63 nM.

As to `COc1ccc(C[C@@H]2NC(=O)[C@H](CCCNC(=N)N)NC(=O)[C@H](CCC(N)=O)NC(=O)[C@H](Cc3c[nH]c4ccccc34)NC(=O)[C@H]([C@@H](C)O)NC(=O)[C@H](CC(N)=O)NC(=O)[C@H](NC(C)=O)CCCNC(=O)CC[C@@H](C(=O)N[C@@H](CC(N)=O)C(=O)N[C@@H](CC(N)=O)C(=O)O)NC(=O)C(C)(C)NC(=O)[C@H](Cc3cccc4ccccc34)NC2=O)cc1` [WO2025051920, Example 22], the IC50 is 48.4 nM. This IC50 lies about 77-fold higher than the previous one.

`COc1ccc(C[C@@H]2NC(=O)[C@H](CCCNC(=N)N)NC(=O)[C@H](CCC(N)=O)NC(=O)[C@H](Cc3cn(C)c4ccccc34)NC(=O)[C@H]([C@@H](C)O)NC(=O)[C@H](CC(N)=O)NC(=O)[C@H](NC(C)=O)CCCCNC(=O)C[C@@H](C(=O)N[C@@H](CC(N)=O)C(=O)N[C@@H](CC(N)=O)C(=O)O)NC(=O)[C@H](CCCCNC(C)=O)NC(=O)[C@H](Cc3ccc4ccccc4c3)NC2=O)cc1` [WO2025051920, Example 10] showed an IC50 of 3.6 nM. This IC50 lies about 13-fold lower than the previous one.

With `COc1ccc(C[C@@H]2NC(=O)[C@H](C)NC(=O)[C@H](CCC(N)=O)NC(=O)[C@H](Cc3c[nH]c4ccccc34)NC(=O)[C@H]([C@@H](C)O)NC(=O)[C@H](CC(N)=O)NC(=O)[C@H](NC(C)=O)CCCCNC(=O)C[C@@H](C(=O)N[C@@H](CC(N)=O)C(=O)N[C@@H](C)C(=O)O)NC(=O)C(C)(C)NC(=O)[C@H](Cc3ccc4ccccc4c3)NC2=O)cc1` [WO2025051920, Example 48], half-maximal inhibition (IC50) required 2.06 nM.

The compound `COc1ccc(C[C@@H]2NC(=O)[C@H](C)NC(=O)[C@H](CCC(N)=O)NC(=O)[C@H](Cc3c[nH]c4ccccc34)NC(=O)[C@H]([C@@H](C)O)NC(=O)[C@H](CC(N)=O)NC(=O)[C@H](NC(C)=O)CCCCNC(=O)C[C@@H](C(=O)N[C@@H](CC(N)=O)C(=O)N[C@@H](CC(N)=O)C(=O)O)NC(=O)C(C)(C)NC(=O)[C@H](Cc3ccc4ccccc4c3)NC2=O)cc1` [WO2025051920, Example 2] gave an IC50 of 0.69 nM. Compared with the last compound, the IC50 is about 3-fold lower.

`COc1ccc(C[C@@H]2NC(=O)[C@H](CCCNC(=N)N)NC(=O)[C@H](CCC(N)=O)NC(=O)[C@H](Cc3c[nH]c4ccccc34)NC(=O)[C@H]([C@@H](C)O)NC(=O)[C@H](CC(N)=O)NC(=O)[C@H](NC(C)=O)CC(=O)NCCC[C@@H](C(=O)N[C@@H](CC(N)=O)C(=O)N[C@@H](CC(N)=O)C(=O)O)NC(=O)C(C)(C)NC(=O)[C@H](Cc3ccc4ccccc4c3)NC2=O)cc1` [WO2025051920, Example 13] registered an IC50 of 6.24 nM.

`CC(=O)N[C@@H]1CCCCNC(=O)C[C@@H](C(=O)N[C@@H](CC(N)=O)C(=O)N[C@@H](CC(N)=O)C(=O)O)NC(=O)C(C)(C)NC(=O)[C@H](Cc2ccc3ccccc3c2)NC(=O)[C@H](Cc2ccc(O)cc2)NC(=O)[C@H](CCCNC(=N)N)NC(=O)[C@H](CCC(N)=O)NC(=O)[C@H](Cc2c[nH]c3ccccc23)NC(=O)[C@H]([C@@H](C)O)NC(=O)[C@H](CC(N)=O)NC1=O` [WO2025051920, Example 4] yielded an IC50 of 1.59 nM.

`COc1ccc(C[C@@H]2NC(=O)[C@H](C)NC(=O)[C@H](CCC(N)=O)NC(=O)[C@H](Cc3c[nH]c4ccccc34)NC(=O)[C@H]([C@@H](C)O)NC(=O)[C@H](CCCNC(=N)N)NC(=O)[C@H](NC(C)=O)CCCCNC(=O)C[C@@H](C(=O)N[C@@H](CC(N)=O)C(=O)N[C@@H](CC(N)=O)C(=O)O)NC(=O)C(C)(C)NC(=O)[C@H](Cc3ccc4ccccc4c3)NC2=O)cc1` [WO2025051920, Example 45] had an IC50 of 0.96 nM.

`COc1ccc(C[C@@H]2NC(=O)[C@H](C)NC(=O)[C@H](CCC(N)=O)NC(=O)[C@H](Cc3c[nH]c4ccccc34)NC(=O)[C@H]([C@@H](C)O)NC(=O)[C@H](CC(N)=O)NC(=O)[C@H](NC(C)=O)CCCCNC(=O)C[C@@H](C(=O)N[C@@H](C)C(=O)N[C@@H](CC(N)=O)C(=O)O)NC(=O)C(C)(C)NC(=O)[C@H](Cc3ccc4ccccc4c3)NC2=O)cc1` [WO2025051920, Example 49] displayed an IC50 of 3.13 nM.

Compound `COc1ccc(C[C@@H]2NC(=O)C(C)(C)NC(=O)[C@H](CCC(N)=O)NC(=O)[C@H](Cc3c[nH]c4ccccc34)NC(=O)[C@H]([C@@H](C)O)NC(=O)[C@H](CC(N)=O)NC(=O)[C@H](NC(C)=O)CCCCNC(=O)C[C@@H](C(=O)N[C@@H](CC(N)=O)C(=O)N[C@@H](CC(N)=O)C(=O)O)NC(=O)C(C)(C)NC(=O)[C@H](Cc3ccc4ccccc4c3)NC2=O)cc1` [WO2025051920, Example 32] displayed an IC50 of 2.68 nM.

`COc1ccc(C[C@@H]2NC(=O)[C@H](C)NC(=O)[C@H](CCC(N)=O)NC(=O)[C@H](Cc3c[nH]c4ccccc34)NC(=O)[C@H]([C@@H](C)O)NC(=O)[C@H](CC(N)=O)NC(=O)[C@H](NC(C)=O)CCCCNC(=O)C[C@@H](C(=O)N[C@@H](CC(N)=O)C(=O)N[C@@H](CC(N)=O)C(N)=O)NC(=O)C3(CCOCC3)NC(=O)[C@H](Cc3ccc4ccccc4c3)NC2=O)cc1` [WO2025051920, Example 51] (Ac-[dK]NTWQAY(Me)[2Nal][Thp]DNN-NH2; lactam 1-10) gave an IC50 of 0.78 nM.
